From ChEMBL document CHEMBL1777789, “The square conformation of phenylglycine-incorporated ascidiacyclamide is stabilized by CH/π interactions between amino acid side chains” (2011)
Converted amounts (≈) assume the structure as drawn.

What was measured:
[1] = tested on: HL-60; test: Cytotoxicity against human HL60 cells after 72 hrs by MTT assay; assay type: functional; conditions: HL-60, 72 h, read-out: ED50
[2] = tested on: P388; test: Cytotoxicity against mouse P388 cells after 72 hrs by MTT assay; assay type: functional; conditions: P388, 72 h, read-out: ED50

## CC[C@H](C)[C@@H]1NC(=O)c2csc(n2)[C@@H](C(C)C)NC(=O)[C@H]2N=C(O[C@@H]2C)[C@H](c2ccccc2)NC(=O)c2csc(n2)[C@@H](C(C)C)NC(=O)[C@H]2N=C1O[C@@H]2C
[1]
  EC50: 12.8 µg/mL (≈ 16.5 µM)
[2]
  EC50: 12.4 µg/mL (≈ 16 µM)

## CC[C@H](C)[C@@H]1NC(=O)c2csc(n2)[C@@H](C(C)C)NC(=O)[C@H]2N=C(O[C@@H]2C)[C@H]([C@@H](C)CC)NC(=O)c2csc(n2)[C@@H](C(C)C)NC(=O)[C@H]2N=C1O[C@@H]2C [ASCIDIACYCLAMIDE]
[1]
  EC50: 33.5 µg/mL (≈ 44.3 µM)
[2]
  EC50: 10.5 µg/mL (≈ 13.9 µM)
